Assay results as given in article PMC2964301, “Human α3β4 Neuronal Nicotinic Receptors Show Different Stoichiometry if They Are Expressed in Xenopus Oocytes or Mammalian HEK293 Cells” (PLoS ONE, 2010).

Columns and labels:
Assay type in all cases: cell-based
[1] = target: T1, human α3β4 nicotinic receptor in Xenopus oocytes, 1:9 α:β cRNA (putative two-α form) (Homo sapiens, UniProt P30926+P32297); assay: two-electrode voltage clamp, extrapolated from low-concentration potency ratio; settings: agonist, unreliable (extrapolated assuming identical efficacy to ACh)
T1 construct: gene CHRNA3; untagged; Xenopus laevis oocytes, 1:9 α:β cRNA; heteropentamer, putative (α3)2(β4)3
Target sequence in this assay (P30926 22-498): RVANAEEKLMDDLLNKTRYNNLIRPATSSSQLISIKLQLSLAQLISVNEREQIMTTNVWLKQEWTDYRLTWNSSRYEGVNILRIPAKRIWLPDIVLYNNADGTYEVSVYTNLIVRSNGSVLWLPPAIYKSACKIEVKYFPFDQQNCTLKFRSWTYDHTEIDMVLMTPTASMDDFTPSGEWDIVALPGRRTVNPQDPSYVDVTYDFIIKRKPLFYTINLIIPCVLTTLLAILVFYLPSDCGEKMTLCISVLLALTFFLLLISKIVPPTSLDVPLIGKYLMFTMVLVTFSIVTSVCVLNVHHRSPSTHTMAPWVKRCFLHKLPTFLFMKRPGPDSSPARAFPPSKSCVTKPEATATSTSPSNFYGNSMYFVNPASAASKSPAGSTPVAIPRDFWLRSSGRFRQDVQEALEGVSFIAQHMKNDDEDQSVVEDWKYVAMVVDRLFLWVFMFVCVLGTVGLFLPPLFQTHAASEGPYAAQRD
Target sequence in this assay (P32297 32-505): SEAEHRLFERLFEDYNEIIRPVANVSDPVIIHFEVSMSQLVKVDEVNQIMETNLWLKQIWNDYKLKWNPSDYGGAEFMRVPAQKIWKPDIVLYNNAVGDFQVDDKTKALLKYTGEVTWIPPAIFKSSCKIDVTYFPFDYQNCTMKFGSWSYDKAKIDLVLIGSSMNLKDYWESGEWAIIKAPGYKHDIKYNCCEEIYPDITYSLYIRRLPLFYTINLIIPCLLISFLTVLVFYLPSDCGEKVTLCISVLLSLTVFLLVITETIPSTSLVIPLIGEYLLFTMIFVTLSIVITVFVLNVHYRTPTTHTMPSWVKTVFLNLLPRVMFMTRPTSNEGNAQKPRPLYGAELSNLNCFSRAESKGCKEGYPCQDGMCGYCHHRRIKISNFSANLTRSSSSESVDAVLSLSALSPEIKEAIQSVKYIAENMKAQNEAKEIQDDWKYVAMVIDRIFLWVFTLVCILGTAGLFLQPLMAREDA

[2] = target: T2, human α3β4 nicotinic receptor in Xenopus oocytes, 9:1 α:β cRNA (putative three-α form) (Homo sapiens, UniProt P30926+P32297); assay: as above; settings: agonist, unreliable (extrapolated assuming identical efficacy to ACh)
T2 construct: gene CHRNA3; untagged; Xenopus laevis oocytes, 9:1 α:β cRNA; heteropentamer, putative (α3)3(β4)2

[3] = target: T1, human α3β4 nicotinic receptor in Xenopus oocytes, 1:9 α:β cRNA (putative two-α form); assay: two-electrode voltage clamp, partial dose-response curves; settings: agonist, -70 mV, pH 7.2, nominally Ca-free, 0.5 µM atropine, 18°C, low concentrations
Description: two-electrode voltage clamp, partial dose-response curves on human α3β4 nicotinic receptor in Xenopus oocytes, 1:9 α:β cRNA (putative two-α form)

T2 sequence (P30926 22-498): as the sequence (P30926 22-498) above
T2 sequence (P32297 32-505): as the sequence (P32297 32-505) above

SMILES | EC 50 [1] | EC 50 [2] | Potency ratio [3]
C[N+]1(C)CCN(c2ccccc2)CC1 [DMPP, 1,1-dimethyl-4-phenylpiperazinium iodide] | ~ 140 µM | ~ 30 µM | –
C[N+](C)(C)CCOC(N)=O [carbachol] | – | – | 0.094±0.003
O=c1cccc2n1C[C@@H]1CNC[C@H]2C1 [cytisine] | – | – | 1.40±0.15
Clc1ccc(C2CC3CCC2N3)cn1 (stereo not shown) [epibatidine] | – | – | 6290±815
CN1[C@@H](CC(=O)c2ccccc2)CCC[C@H]1C[C@H](O)c1ccccc1 [lobeline] | – | – | 7.35±0.56
CN1CCC[C@H]1c1cccnc1 [nicotine] | – | – | 1.43±0.14
